Measurements taken from US20230390409A1, “FAP-ACTIVATED SERUM EXTENDED HALF-LIFE THERAPEUTIC CONJUGATES” (Avacta Life Sciences Limited, priority 2020, published 2023).

What was measured:
G-CSF [1] = details: VbP alone, known; cited from earlier work
mouse tumor model = assay: EC50 / maximum tolerated dose studies, mice; assay type: in vivo
Description: (§1) Half-maximal effective concentration (EC50) studies were undertaken to examine the difference between mice and rats administered talabostat alone (FIG. 4A) and mice and rats administered the therapeutic conjugates comprising talabostat (FIG. 4B). When talabostat is administered alone, the talabostat maximum tolerated dose (MTD) is about 3 mg/m^2 in a mouse tumor model and 0.18 mg/m^2 in rats. That is, the talabostat MTD is 1/17 the tumor model EC50 (FIG. 4A). In contrast, when the talabostat is administered as part of the therapeutic conjugate, the MTD is 160 mg/m^2 in the mouse model and the EC50 for rats is greater than 500 mg/m^2 (FIG. 4B). Talabostat, as part of the therapeutic conjugate, can be administered to rats and mice at therapeutically effective doses.

rats = assay: EC50 / maximum tolerated dose studies, rats; assay type: in vivo, rat
Description: as §1

G-CSF [2] = assay: G-CSF serum cytokine response in nontumor-bearing BALB/c mice (ELISA); assay type: in vivo; details: 200 μg/mouse intraperitoneal, six hours after dosing (FIG. 23)
Description: The FAP-activated prodrug G-CSF serum cytokine response in nontumor-bearing BALB/c mice was examined. Female BALB/c mice of 11-12 weeks of age were injected intraperitonially with vehicle (PBS), 42CQ-6501, or 42CQ-6501+MSA at 200 μg/mouse, in groups of 5 mice per treatment.
While cytokine recruitment is believed to play an important role in tumor immunity, its presence in the serum represents a systemic response, which can lead to unwanted adverse effects. […] 42CQ is an AFFIMER® polypeptide designed to bind to serum albumin (SEQ ID NO: 133). Consequently, the 42CQ-based conjugates (with 6501) were prepared with or without prebinding to MSA to determine whether there was an evident difference between the two formulations.
Six hours after dosing, blood was collected to measure G-CSF in the serum using a mouse G-CSF Quantikine ELISA kit.

CC(C)[C@H](N)C(=O)N1CCC[C@H]1B(O)O [Talabostat, Val-boroPro]
serum G-CSF response (G-CSF [1]): large serum G-CSF response | maximum tolerated dose (MTD) (mouse tumor model; mouse tumor model): about 3 mg/m^2 | talabostat MTD relative to the tumor model EC50 (mouse tumor model; talabostat administered alone (FIG. 4A)): 1/17 | maximum tolerated dose (MTD) (rats): 0.18 mg/m^2

B1: 42CQ-6501: 42CQ, an AFFIMER polypeptide binding serum albumin (SEQ ID NO: 133), conjugated with 6501 (conjugate)
chain: MIPRGLSEAKPATPEIQEIVDKVKPQLEEKTNETYGKLEAVQYKTQVLANFFQRRWPGSTNYYIKVRAGDNKYMHLKVFNGPWKFRNTDRGADRVLTGYQVDKNKDDELTGFAAAGGRAEQKLISEEDLGCAENLYFQGGAAGHHHHHH
modifications: conjugated with 6501
serum concentration of G-CSF (G-CSF [2]): significant increase
